Measurements published in US11147792B2, “Inhibitors of microbially induced amyloid” (Axial Therapeutics, Inc, priority 2017, dated 2021).
Like-named read-outs stand apart in the source and are kept apart here.

Key:
Format in all cases: biochemical
[1] = biological target: T1, E. coli CsgA (Escherichia coli, UniProt P28307); experiment: In vitro ThioflavinT assay of CsgA aggregation; details: for Effect on CsgA aggregation (in words) / Inhibition of Aggregation CsgA (compound activity range): compounds at 20 μM; for inhibition at 20 µM / Inhibition of Aggregation CsgA (compound activity range): CsgA at 20 μM, ThT fluorescence at 18 hours; for Inhibition of Aggregation CsgA (compound activity range): 20 µM
T1 construct: made in house; host or cells: E. coli NEB 3016 slyD::kan, pET11d
Description: In Vitro ThioflavinT Assay to Determine Effects of Compounds on CsgA Aggregation.
To assess the effects of compounds on aggregation of E. coli CsgA, a cell-free assay was performed using purified CsgA and Thioflavin T. In the assay, histidine-tagged CsgA was over-expressed in E. coli NEB 3016 slyD::kan cells harboring a pET11d vector containing csgA with the sequence for 6 histidine residues added to the C-terminus and without the Sec signal (amino acid 1-22) sequence. To induce over-expression of CsgA, 0.5 mM isopropyl β-D-1-thiogalactopyranoside (“IPTG”) was added to cultures with an optical density at 600 nm (OD600) of 0.8-1, and induced cells were cultured at 37° C. for 1 hour prior to harvest via centrifugation. Cells were lysed under denaturing conditions with 8 M guanidine hydrochloride in 50 mM potassium phosphate buffer pH 7.3, and CsgA was purified via immobilized-metal affinity chromatography by batch purification with Nickel-NTA agarose and a combination of low pressure and gravity flow through a disposable polypropylene column, including washes under low pressure applied manually via application of a syringe plunger to the column with 50 mM potassium phosphate buffer pH 7.3 followed by 12.5 mM imidazole in 50 mM potassium phosphate buffer pH 7.3, and elution by gravity flow with 125 mM imidazole in 50 mM potassium phosphate buffer pH 7.3. Buffers with imidazole were freshly prepared prior to the protein purification. Purified CsgA was passed through a 30 kDa molecular weight cut-off filter and passed through a desalting column. All steps of the CsgA purification in the absence of guanidine hydrochloride were conducted in rapid succession with as little delay as possible. The assay was conducted in 96-well black microplates with 40 μM ThioflavinT, 1% DMSO, CsgA at 20 μM, and compounds at 20 μM. Plates were incubated at 25° C. in a Tecan Nano F200 plate reader with excitation at 438 nm using a 439 nm filter with a bandwidth of 8 nm, and emission at 495 nm with a 490 nm filter with a bandwidth of 10 nm. During the assay, plates were shaken initially for 5 seconds and subsequently for 3 seconds prior to fluorescent readings. Readings were performed every 20 minutes for up to 24 hours. The effect of compounds on CsgA aggregation in the assay was determined with data from 18 hours, following the plateau of the fluorescent signal in the untreated (no compound) control wells containing CsgA. Fluorescence values for each compound with CsgA were first adjusted by subtracting the average fluorescence of the compound in the absence of CsgA. These adjusted values were normalized by dividing them by the average fluorescence in the no-compound (i.e., untreated) control wells containing CsgA […], and the average normalized fluorescence with the compound was expressed as a percentage of the average fluorescence observed in untreated controls.

[2] = biological target: T2, α-synuclein seeded by E. coli CsgA (Homo sapiens, UniProt P37840); experiment: In vitro Thioflavin T assay of CsgA-seeded α-synuclein aggregation
T2 construct: made in house; host or cells: E. coli NEB 3016 slyD::kan (CsgA, pET11d); E. coli (α-synuclein)
Description: In Vitro Thioflavin T Assay to Determine the Effects of Compounds on CsgA-Seeded α-Synuclein Aggregation.
To induce over-expression of CsgA, 0.5 mM IPTG was added to cultures with an optical density at 600 nm (OD600) of 0.8-1, and induced cells were cultured at 37° C. for 1 hour prior to harvest via centrifugation. […] Buffers with imidazole were freshly prepared prior to the protein purification. Purified CsgA was passed through a 30 kDa molecular weight cut-off filter and through a desalting column. All steps of the CsgA purification in the absence of guanidine hydrochloride were conducted in rapid succession with as little delay as possible. […] The ammonium sulfate pellet was washed with an equal volume of 100 mM ammonium acetate in ethanol, pelleted via centrifugation, washed twice with ethanol, dried overnight, resuspended in 10 mM Tris pH 7.4, and passed through a 50 kDa cut-off column. The assay was conducted in 96-well black microplates with a single glass 2 mm bead per well, 40 μM ThioflavinT, 1% DMSO, 2 μM CsgA, 50 μM α-synuclein, 100 mM sodium chloride, 9.3 mM potassium phosphate pH 7.3, and compounds at 50 μM. […] The effect of compounds on CsgA-seeded α-synuclein aggregation in the assay was determined with data from 40 hours, following the plateau of the fluorescent signal in the untreated (no compound) control wells containing CsgA and α-synuclein. Fluorescence values for each compound with CsgA and α-synuclein were first adjusted by subtracting the average fluorescence of the compound in the absence of CsgA and α-synuclein.

[3] = biological target: T3, human α-synuclein (Homo sapiens, UniProt P37840); experiment: In vitro Thioflavin T assay of α-synuclein aggregation; details: for inhibition at 1 µM: compounds at 1 μM
T3 construct: made in house; host or cells: E. coli
Description: In Vitro Thioflavin T Assay to Determine the Effects of Compounds on α-Synuclein Aggregation.
The ammonium sulfate pellet was washed with an equal volume of 100 mM ammonium acetate in ethanol, pelleted via centrifugation, washed twice with ethanol, dried overnight, resuspended in 10 mM Tris pH 7.4, and passed through a 50 kDa cut-off column. The assay was conducted in 96-well black microplates with a single 2 mm bead in each well, 40 μM ThioflavinT, 1% DMSO, 50 μM α-synuclein, 100 mM sodium chloride, 9.3 mM potassium phosphate pH 7.3, 4.6 mM Tris pH 7.4 (added as the solvent for α-synuclein or independently for controls lacking α-synuclein), and compounds at 1 μM or 50 μM. […] Readings were performed hourly for up to 73 hours. The effect of compounds on α-synuclein aggregation in the assay was determined with data from 40 hours, following the plateau of the fluorescent signal in the untreated (no compound) control wells containing α-synuclein. Fluorescence values for each compound with α-synuclein were first adjusted by subtracting the average fluorescence of the compound in the absence of α-synuclein.

[4] = read-out: Inhibition of Aggregation CsgA (compound activity range), compounds at 20 μM
[5] = read-out: Inhibition of Aggregation CsgA, compounds at 20 μM
[6] = compounds at 50 μM, 2 μM CsgA, 50 μM α-synuclein, ThT fluorescence at 40 hours, read-out: Inhibition of Aggregation CsgA-seeded αSyn
[7] = compounds at 50 μM, 2 μM CsgA, 50 μM α-synuclein, ThT fluorescence at 40 hours, read-out: Inhibition of Aggregation CsgA-seeded αSyn (compound activity range)
[8] = compounds at 50 μM, 50 μM α-synuclein, ThT fluorescence at 40 hours, read-out: Inhibition of Aggregation αSyn
[9] = compounds at 50 μM, 50 μM α-synuclein, ThT fluorescence at 40 hours, read-out: Inhibition of Aggregation αSyn (compound activity range)
[10] = read-out: Inhibition of Aggregation CsgA-seeded αSyn
[11] = read-out: Inhibition of Aggregation αSyn
[12] = read-out: Inhibition of Aggregation αSyn (compound activity range)
[13] = 50 μM α-synuclein, ThT fluorescence at 40 hours, read-out: Inhibition of Aggregation αSyn
[14] = 50 μM α-synuclein, ThT fluorescence at 40 hours, read-out: Inhibition of Aggregation αSyn (compound activity range)
[15] = read-out: Inhibition of Aggregation CsgA-seeded αSyn (compound activity range)

T1 sequence (P28307 23-151): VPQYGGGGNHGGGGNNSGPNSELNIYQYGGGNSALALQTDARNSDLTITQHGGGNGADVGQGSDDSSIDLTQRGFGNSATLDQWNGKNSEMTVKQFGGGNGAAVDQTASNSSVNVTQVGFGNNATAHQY

SMILES	Effect on CsgA aggregation (in words) [1]	inhibition at 20 µM [1, 4]	inhibition at 20 µM [1, 5]	inhibition at 50 µM [2, 6]	inhibition at 50 µM [3, 8]	inhibition at 50 µM [3, 9]	inhibition at 1 µM [3, 13]	inhibition at 1 µM [3, 14]	other results
COc1ccccc1O [guaiacol, 2-methoxyphenol]	without notable inhibition	-10 to 10%	-5%	40%	-2%	-10 to 10%			Effect on CsgA-seeded α-synuclein aggregation (in words) ([2]; compounds at 50 μM): demonstrated inhibition; inhibition at 50 µM [2, 7]: 30 to 60%; Effect on α-synuclein aggregation (in words) ([3]; compounds at 50 μM): without notable inhibition
Cc1ccc(C(C)C)cc1O [carvacrol, 2-methyl-5-(propan-2-yl)phenol]			-20%						Inhibition of Aggregation CsgA (compound activity range) [1]: − ((−) is between −10% to 10% inhibition); inhibition at 50 µM [2, 10]: -2%; inhibition at 50 µM [3, 11]: 2%; inhibition at 50 µM [3, 12]: -10 to 10%
Oc1ccc(/C=C/c2cc(O)cc(O)c2)cc1 [resveratrol, (E)-5-(4-hydroxystyryl)benzene-1,3-diol]		> 60%	62%				86%	> 60%	Inhibition of Aggregation CsgA (compound activity range) [1]: (+++) to (++)
O=C(/C=C/c1ccc(O)c(O)c1)O[C@H](Cc1ccc(O)c(O)c1)C(=O)O [rosmarinic acid]		30 to 60%	48%				99%	> 60%	
O=c1cc(-c2ccc(O)cc2)oc2cc(O)cc(O)c12 [apigenin, 5,7-dihydroxy-2-(4-hydroxyphenyl)-4H-1-benzopyran-4-one]							56%	30 to 60%	
C=CCc1ccc(O)c(OC)c1 [eugenol, 2-methoxy-4-(prop-2-en-1-yl)phenol]	without notable inhibition		-10%						Effect on CsgA-seeded α-synuclein aggregation (in words) ([2]; compounds at 50 μM): demonstrated inhibition; inhibition at 50 µM [2, 10]: 42%; inhibition at 50 µM [2, 15]: 30 to 60%; Effect on α-synuclein aggregation (in words) ([3]; compounds at 50 μM): without notable inhibition; inhibition at 50 µM [3, 11]: -1%; inhibition at 50 µM [3, 12]: -10 to 10%
O=C(CCc1ccc(O)cc1)c1c(O)cc(O)cc1O [phloretin, 3-(4-hydroxyphenyl)-1-(2,4,6-trihydroxyphenyl)propan-1-one]		10 to 30%	18%	21%	46%	30 to 60%			inhibition at 50 µM [2, 7]: 10 to 30%
CC(Cc1ccc(O)c(O)c1)C(C)Cc1ccc(O)c(O)c1 (stereo not drawn) [NDGA, 4,4′-(2,3-dimethylbutane-1,4-diyl)dibenzene-1,2-diol]		10 to 30%	23%	39%	54%	30 to 60%			
CCc1ccc(O)c(OC)c1 [4-ethyl guaiacol, 4-ethyl-2-methoxyphenol]	relatively strong enhancement of CsgA aggregation		-82%		-2%	-10 to 10%			inhibition at 50 µM [2, 10]: -10%; inhibition at 50 µM [2, 15]: 30 to 60%
O=c1c(O)c(-c2ccc(O)c(O)c2)oc2cc(O)cc(O)c12 [quercetin, 2-(3,4-dihydroxyphenyl)-3,5,7-trihydroxychromen-4-one]		30 to 60%	33%				99%	> 60%	
COc1cc(/C=C/C(=O)/C=C(O)/C=C/c2ccc(O)c(OC)c2)ccc1O [curcumin, (1E,6E)-1,7-Bis(4-hydroxy-3-methoxyphenyl)hepta-1,6-diene-3,5-dione]				86%					inhibition at 50 µM [3, 11]: 89%; inhibition at 50 µM [3, 12]: > 60%
O=c1c(-c2ccc(O)cc2)coc2cc(O)cc(O)c12 [genistein, 5,7-dihydroxy-3-(4-hydroxyphenyl)chromen-4-one]							40%	30 to 60%	
O=c1c(O)c(-c2ccc(O)cc2O)oc2cc(O)cc(O)c12 [morin, 2-(2,4-dihydroxyphenyl)-3,5,7-trihydroxychromen-4-one]		> 60%	69%	70%	88%	> 60%			
CCCCCCCCCCCCOC(=O)c1cc(O)c(O)c(O)c1 [lauryl gallate, dodecyl 3,4,5-trihydroxybenzoate]	did not appear to inhibit CsgA aggregation	-10 to 10%	1%	24%	33%	30 to 60%			Inhibition of Aggregation CsgA-seeded αSyn (compound activity range) ([2]; compounds at 50 μM, 2 μM CsgA, 50 μM α-synuclein, ThT fluorescence at 40 hours): +%; inhibition at 50 µM [2, 7]: 10 to 30%
O=C(O)c1cc(O)c(O)c(O)c1 [gallic acid, 3,4,5-trihydroxybenzoic acid]		> 60%	82%	63%	99%	> 60%			Inhibition of Aggregation CsgA (compound activity range) [1]: (++) to (+++)
Brc1cccc(-c2cc(-c3ccc4c(c3)OCO4)n[nH]2)c1 [Anle 138b, reference compound]	relatively little to no effect	-10 to 10%	9%						
